Assay [1] concerns HEK293 (human normal embryonic kidney). As to the kind of experiment: Cell proliferation inhibition, Cell Titer-Glo, HEK293. The assay is classed as cell-based. The following applies: cell proliferation assay, HEK293 cells, read-out: HEK 293 IC50. Here is the method:
IGF1R and other tyrosine kinase inhibitors can inhibit the proliferation of certain cancer cell lines indicating their possible therapeutic utility for treating the corresponding cancer types. Cancer cell lines of interest and control normal lines, including CHO, HEK293, BA/F3, MM1, H929, COLO205, PC3, DU145, MCF7, Panc1, ACHN, Hep G2, H460, K562, TT, U87-G, CAOV-3, SK-MEL5, Karpas 299, are plated in white, clear-bottomed 384-well cell culture plates at 2500-5000 cells per well and supplied with dilutions of tested compounds After a desired period of time (typically 3 days), the number of viable cells is quantitated by using Cell Titer-Glo Luminescent Cell Viability Assay (Promega), a cell proliferation assay system based on detection of total amount of ATP present as a measure of cell metabolic activity. The plated cells are mixed with the Cell Titer-Glo developing reagent and counted in a luminescence multiwell plate reader according to the standard manufacturer's protocol to generate IC50 curves for cell proliferation inhibition.
IGF1R and other tyrosine kinase inhibitors can inhibit the proliferation of certain cancer cell lines indicating their possible therapeutic utility for treating the corresponding cancer types. Cancer cell lines of interest and control normal lines, including CHO, HEK293, BA/F3, COLO205, PC3, DU145, MCF7, Panc1, ACHN, Hep G2, H460, K562, TT, U87-MG, CAOV-3, SK-MEL5, Karpas 299 and human multiple myeloma cell lines H929, MM1s, MM1r, UTMC2, CPM2, KMS11, My5, KMS12PE, My7, JJN3, KMS18, U266, SKMM2, RPMI-8226 are plated in white, clear-bottomed 384-well cell culture plates at 2500-5000 cells per well and supplied with dilutions of tested compounds After a desired period of time (typically 3 days), the number of viable cells is quantitated by using Cell Titer-Glo Luminescent Cell Viability Assay (Promega), a cell proliferation assay system based on detection of total amount of ATP present as a measure of cell metabolic activity. The plated cells are mixed with the Cell Titer-Glo developing reagent and counted in a luminescence multiwell plate reader according to the standard manufacturer's protocol to generate IC50 curves for cell proliferation inhibition. Results are typically reported as percent of growth (% viability =(OD72h(compound)−ODday0))/(OD72h(no compound)−ODday0). Alternatively, viable cells are quantitated by using the conventional colorimetric MTT assay. The MTT assay is based on the cleavage of the yellow tetrazolium salt MTT to purple formazan crystal by metabolic active cells. The formazan is then solubilized, and the concentration determined by optical density at 570 nm. The cells plated and incubated with a compound as described above are supplemented with the solution of MTT and incubated for 2-3 hours. The growth medium is removed and dimethyl sulfoxide is added into each well to dissolve the formazan. The absorbance is measured on an ELISA plate reader with a test wavelength of 570 nm and a background subtraction wavelength of 630 nm to obtain sample signal (OD570-OD630). […] The results are reported in terms of IC50 value for a particular compound and a cell line in the standard 3-day proliferation assay using Cell Titer-Glo. […] The results are reported in terms of IC50 value for a particular compound and a cell line in the standard 3-day proliferation assay using MTT assay.
For orientation: ATP-based viability assays read luminescence as a measure of living cells.

In assay [2] the test system is K562. Briefly: Cell proliferation inhibition, Cell Titer-Glo, K562. The assay is classed as cell-based. The following applies: Homo sapiens; cell proliferation assay, K562 cells. Summed up:
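K562 cells were seeded at 2500-5000 cells per well in white, clear-bottomed 384-well culture plates and treated with dilutions of test compounds for typically 3 days. Viable cells were quantified with the Cell Titer-Glo Luminescent Cell Viability Assay (Promega), which measures total ATP, read on a luminescence plate reader to derive IC50 values for proliferation inhibition.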

In assay [3] the target is T1, Alk (Homo sapiens, UniProt Q9UM73).
T1 construct: 6×His- or GST-tagged kinase domain fragments of the corresponding RTKs expressed in baculovirus system; host or cells: baculovirus system
As to the kind of experiment: Tyrosine kinase assay (Kinase-Glo or AlphaScreen), Alk. The following applies: biochemical tyrosine kinase assay. Summed up: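 Baculovirus-expressed His- or GST-tagged kinase domains with poly(Glu-Tyr) substrate, 10 μM ATP, pH 7.5 Tris with MgCl2/MnCl2. Kinase-Glo: 60 min at 37 °C, residual ATP by luminescence; AlphaScreen: 30 min at RT, then anti-phosphotyrosine beads 60 min. Eight concentrations, 1 nM to 20 μM; IC50 by nonlinear regression.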

Assay [4] has as its system Karpas-299. As to the kind of experiment: Cell proliferation inhibition, Cell Titer-Glo, Karpas-299. The settings on record: Homo sapiens; cell proliferation assay, Karpas-299 cells. The assay is classed as cell-based. Summed up:
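Karpas 299 cells were seeded into white, clear-bottomed 384-well culture plates at 2500-5000 cells per well and exposed to serial dilutions of test compounds for about 3 days. Viable cell numbers were then measured with the Cell Titer-Glo Luminescent Cell Viability Assay (Promega), which detects total ATP, and IC50 values for proliferation inhibition were derived.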

For assay [5], the system named is CHO (chinese hamster ovary). As to the kind of experiment: Cell proliferation inhibition, Cell Titer-Glo, CHO. The class given is cell-based. The following applies: Cricetulus griseus; cell proliferation assay, CHO cells. Summed up:
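Cells seeded at 2500-5000 per well with serially diluted compound for typically 3 days. Viable cells measured by ATP luminescence (Cell Titer-Glo); IC50 from proliferation-inhibition curves.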

Some results are limits rather than exact numbers.

T1 sequence (Q9UM73 1116-1392 limits assumed, species assumed): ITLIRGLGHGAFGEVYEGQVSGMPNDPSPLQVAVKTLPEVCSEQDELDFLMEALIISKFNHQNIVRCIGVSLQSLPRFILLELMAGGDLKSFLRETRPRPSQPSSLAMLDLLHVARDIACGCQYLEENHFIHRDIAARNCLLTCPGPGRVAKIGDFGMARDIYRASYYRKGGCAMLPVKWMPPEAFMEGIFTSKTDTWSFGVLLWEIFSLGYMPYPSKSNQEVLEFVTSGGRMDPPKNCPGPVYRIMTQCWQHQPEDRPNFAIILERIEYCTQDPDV

Take `Cc1c(Cl)cccc1OC[C@H](O)CNc1cc[nH]c(=O)c1-c1nc2cc3c(cc2[nH]1)C(=O)N(C1CCN(C)CC1)C3=O` [compound 94]: the IC50 in assay [1] was > 15 µM; in assay [2], > 15 µM; in assay [3], 0.5 to 5 µM; in assay [4], > 15 µM.
For `CN1CCC(N2C(=O)c3cc4nc(-c5c(NC[C@@H](O)COc6cccc(C(F)(F)F)c6)cc[nH]c5=O)[nH]c4cc3C2=O)CC1` [compound 97], the IC50 in assay [1] is > 15 µM; in assay [2], > 15 µM; in assay [3], 5 to 15 µM; in assay [4], > 15 µM.
As to `CCN1CCC(N2C(=O)c3cc4nc(-c5c(NC[C@@H](O)COc6ccc(C)cc6C)cc[nH]c5=O)[nH]c4cc3C2=O)CC1` [compound 143], the IC50 in assay [1] is > 15 µM; in assay [5], > 15 µM; in assay [3] it was < 0.5 µM.
On to `CCc1cc(C)ccc1OC[C@H](O)CNc1cc[nH]c(=O)c1-c1nc2cc3c(cc2[nH]1)CN(C1CCN(C)CC1)C3=O` [compound 141], for which the IC50 is > 15 µM in assay [1], > 15 µM in assay [5], > 15 µM in assay [2] and 0.5 to 5 µM in assay [3].
In the case of `C[C@H](O)CN1C(=O)c2cc3nc(-c4c(NC[C@@H](O)c5cccc(Cl)c5)cc[nH]c4=O)[nH]c3cc2C1=O` [compound 31], the IC50 in assay [1] is 5 to 15 µM; in assay [2] it was 5 to 15 µM; in assay [3], > 15 µM; in assay [4] it was > 15 µM.
`Cc1ccc(OC[C@H](O)CNc2cc[nH]c(=O)c2-c2nc3cc4c(cc3[nH]2)C(=O)N(C2CCNCC2)C4=O)c(C)c1` [compound 142]: the IC50 in assay [1] lay within 5 to 15 µM; in assay [5], 5 to 15 µM; in assay [2], 5 to 15 µM; in assay [3], 0.5 to 5 µM.
On to `CN1CCC(N2C(=O)c3cc4nc(-c5c(NC[C@@H](O)c6cccc(Cl)c6)cc[nH]c5=O)[nH]c4cc3C2=O)CC1` [compound 1], for which the IC50 in assay [1] lay in the range of 5 to 15 µM; in assay [2] it was 5 to 15 µM; in assay [3], 0.5 to 5 µM.
Consider `CCN1CCC(N2Cc3cc4nc(-c5c(NC[C@@H](O)COc6ccc(C)cc6C)cc[nH]c5=O)[nH]c4cc3C2=O)CC1` [compound 144], for which the half-maximal inhibitory concentration (IC50) in assay [1] is 5 to 15 µM; in assay [5], 5 to 15 µM; in assay [2], > 15 µM; in assay [3] it was < 0.5 µM.
As to `Cc1ccc(OC[C@H](O)CNc2cc[nH]c(=O)c2-c2nc3cc4c(c(C)c3[nH]2)CN(C2CCN(C)CC2)C4=O)c(C)c1` [compound 132], the half-maximal inhibitory concentration (IC50) in assay [1] was > 15 µM; in assay [5], > 15 µM; in assay [2], > 15 µM; in assay [3] it was 0.5 to 5 µM.
`CN1CCC(N2C(=O)c3cc4nc(-c5c(NC[C@@H](O)COc6c(F)ccc(Cl)c6F)cc[nH]c5=O)[nH]c4cc3C2=O)CC1` [compound 95]: the half-inhibitory concentration (IC50) lay in the range of 5 to 15 µM in assay [1], 5 to 15 µM in assay [2], 0.5 to 5 µM in assay [3] and 5 to 15 µM in assay [4].
As to `Cc1ccc(OC[C@H](O)CNc2cc[nH]c(=O)c2-c2nc3c(C)c4c(cc3[nH]2)C(=O)N(C2CCN(C)CC2)C4)c(C)c1` [compound 139], the IC50 in assay [1] is > 15 µM; in assay [5] it was > 15 µM; in assay [2] it was > 15 µM; in assay [3], 0.5 to 5 µM.
With `Cc1ccc(OC[C@H](O)CNc2cc[nH]c(=O)c2-c2nc3c(C)c4c(cc3[nH]2)CN(C2CCN(C)CC2)C4=O)c(C)c1` [compound 140], the IC50 was 5 to 15 µM in assay [1], > 15 µM in assay [5], 5 to 15 µM in assay [2] and 0.5 to 5 µM in assay [3].
Regarding `COc1ccc(OC[C@H](O)CNc2cc[nH]c(=O)c2-c2nc3cc4c(cc3[nH]2)C(=O)N(C2CCN(C)CC2)C4=O)c(OC)c1OC` [compound 93], the IC50 was 5 to 15 µM in assay [1], > 15 µM in assay [2], > 15 µM in assay [3] and 5 to 15 µM in assay [4].
Turning to `Cc1cc(C)c(OC[C@H](O)CNc2cc[nH]c(=O)c2-c2nc3cc4c(cc3[nH]2)C(=O)N(C2CCN(C)CC2)C4=O)cc1Cl` [compound 108], the IC50 fell in the range of 5 to 15 µM in assay [1], 0.5 to 5 µM in assay [3] and 5 to 15 µM in assay [4].
As for `Cc1ccc(OC[C@H](O)CNc2cc[nH]c(=O)c2-c2nc3cc4c(cc3[nH]2)CN(C2CCN(C)CC2)C4=O)c(C)c1` [compound 130], the IC50 in assay [1] was > 15 µM; in assay [5], > 15 µM; in assay [2], > 15 µM; in assay [3], 0.5 to 5 µM.
In the case of `Cc1ccc(OC[C@H](O)CNc2cc[nH]c(=O)c2-c2nc3cc4c(cc3[nH]2)C(=O)N(C2CCN(C)CC2)C4=O)c(C)c1` [compound 59], the IC50 is 5 to 15 µM in assay [1], 5 to 15 µM in assay [2], 0.5 to 5 µM in assay [3] and 0.5 to 5 µM in assay [4].

The term IC50 denotes the concentration needed to halve the response being measured.

The values are drawn from US8063225B2, “Tricyclic compound derivatives useful in the treatment of neoplastic diseases, inflammatory disorders and immunomodulatory disorders” (Chembridge Corporation, priority 2006, dated 2011).
